From patent US8158317B2, “Azo dye compound, coloring composition, ink sheet for thermal transfer recording, thermal transfer recording method, color toner, ink for inkjet, and color filter” (FUJIFILM Corporation, priority 2006, dated 2012)

Legend:
Format in all cases: physicochemical
[1] = Maximum absorption wavelength of the absorption spectrum in ethyl acetate solution; details: for Maximum Absorption Wavelength: concentration 1×10^−6 mol/L, optical path length 10 mm; for λmax: stated in the production example
Text: The maximum absorption wavelength of the absorption spectrum in an ethyl acetate solution (concentration 1×10^−6 mol/L; optical path length, 10 mm) of these compounds is shown in Table 1 below.

[2] = Dye solubility when preparing the coating composition for dye-donating layer formation (ink sheet); set-up: key: A (soluble easily); B (soluble); C (soluble but hardly); details: dye in coating composition with polyvinylbutyral resin, methyl ethyl ketone/toluene (1/1); three ranks
Text: A polyester film (Lumirror, Toray's trade name) having a thickness of 6.0 μm and coated with a thermoplastic acrylic resin (thickness, 1 μm) for heat-resistant lubrication on the back thereof was used as a support. The following coating composition for dye-donating layer formation was applied onto the surface of the support film, in a mode of wire bar coating, thereby forming a coating layer having a dry thickness of 1 μm thereon to give an ink sheet 1.
(Coating Composition for Dye-donating Layer Formation)
Next, ink sheets 2 to 5 of the invention and comparative ink sheets 6 to 8 were formed in the same manner as that for the ink sheet 1 but using the dye shown in Table 2 below in place of Compound (1). In this process, the dye solubility was evaluated in three ranks; A (soluble easily), B (soluble), C (soluble but hardly).

[3] = Light stability (lightfastness) of thermal transfer images under Xe light; details: Xe light (17000 lux) for 7 days; density retentiveness ratio to original reflection density 1.0; three ranks
Procedure: Next, the recorded thermal transfer image-receiving materials were exposed to an Xe light (17000 lux) for 7 days and tested for the light stability (lightfastness) of the images. After the exposure, the status A reflection density of the part originally having a status A reflection density of 1.0 was measured, and the image stability was indicated by the density retentiveness ratio (percentage) to the original reflection density 1.0 before exposure. The samples were evaluated in three ranks, A (from 80% to less than 100%), B (from 60% to less than 80%), and C (less than 60%).

| Structure (SMILES) | Maximum Absorption Wavelength [1] [nm] | Solubility [2] | Lightfastness [3] | λmax [1] [nm] |
| --- | --- | --- | --- | --- |
| CN(C)C(=O)n1c(/N=N/c2c(C(C)(C)C)nn(C)c2N)nc(C#N)c1C#N [(2)] | 439 | A | A (A (from 80% to less than 100%)) |  |
| CC(=O)n1c(/N=N/c2c(C(C)(C)C)nn(C)c2N)nc(C#N)c1C#N [(3)] | 452 | A | A (A (from 80% to less than 100%)) |  |
| Cn1nc(C(C)(C)C)c(/N=N/c2nc(C#N)c(C#N)n2C(=O)c2ccccc2)c1N [(4)] | 454 | A | A (A (from 80% to less than 100%)) |  |
| COC(=O)n1c(/N=N/c2c(C(C)(C)C)nn(C)c2N)nc(C#N)c1C#N [(5)] | 451 | A | A (A (from 80% to less than 100%)) |  |
| CC(C)(C)c1nn(-c2ccccc2)c(N)c1/N=N/c1ccc([N+](=O)[O-])cc1 [Comparative Dye 1, reference compound] |  | B | B (B (from 60% to less than 80%)) |  |
| CCN(CC)C(=O)n1c(/N=N/c2ccc(N(CC)CC)cc2NC(C)=O)nc(C#N)c1C#N [Comparative Dye 2, reference compound] |  | A | B (B (from 60% to less than 80%)) |  |
| Cn1nc(C(C)(C)C)c(/N=N/c2nc(C#N)c(C#N)[nH]2)c1N [Comparative Dye 3, reference compound] |  | B | C (C (less than 60%)) | 432 |
| CCN(CCOc1ccc(C2CCCCC2)cc1)c1ccc(C=C(C#N)C#N)c(C)c1 [Comparative Dye 4, reference compound] |  | A | C (C (less than 60%)) |  |
| CCCCN(CCCC)C(=O)c1ccc2c(c1)C(=O)C(c1nc3ccc(C(C)C)cc3cc1O)C2=O (stereo not drawn) [Comparative Dye 5, reference compound] |  | B | A (A (from 80% to less than 100%)) |  |
| CCN(CC)C(=O)n1c(/N=N/c2c(C(C)(C)C)nn(C)c2N)nc(C#N)c1C#N [Compound (1)] | 438 | A | A (A (from 80% to less than 100%)) | 438 |
